Test: Crystal form after drying/heating at 50° C. (solid state stability of the polymorph)
Type: physicochemical
Protocol: X-Ray powder diffraction data were obtained using a SCINTAG powder X-Ray diffractometer model X'TRA equipped with a solid state detector and a variable gonimeter. Copper radiation of 1.5418 Å was used. A round standard aluminum sample holder with round zero background, and cavity of 25(diameter)*0.5(dept) mm. Scanning parameters range of: 2-40 deg. 2θ and continuous scan rate of 3 deg./min.
0.62 gr of Cinacalcet HCl was dissolved in Chloroform (6 ml) at room temperature. […] The slurry was stirred at room temperature for 4 minutes. […]

- crystalline structure after drying (dried at 50° C. for 24 hours): maintained as form III
- crystal form obtained after heating (heated at 50° C. under vacuum for 22 hours): form I was obtained
Compound: C[C@@H](NCCCc1cccc(C(F)(F)F)c1)c1cccc2ccccc12.Cl [Cinacalcet HCl crystal form III, (R)-α-methyl-N-[3-[3-(trifluoromethyl)phenyl]propyl]-1-naphthalenemethane amine]
